# Test results published in ChEMBL document CHEMBL1158217, “Tetranortriterpenoids from Ruagea glabra” (1996).
# Test system: Spodoptera frugiperda
# Experiment: Antifeedant activity against Spodoptera frugiperda final instar larvae at 100 ppm after 18 hrs by glass fiber disk method
# Assay type: functional
# Design: unit not given here
row,SMILES,Activity
1,C/C=C(\C)C(=O)O[C@H]1C(C)(C)[C@H](CC(=O)OC)[C@]2(C)C(=O)[C@@]1(O)[C@H]1O[C@]13[C@@H]1CC(=O)O[C@@H](c4ccoc4)[C@]1(C)CC[C@H]23 [RUAGEANIN B],86.3
2,COC(=O)C[C@H]1C(C)(C)[C@H](OC(=O)C(C)C)[C@H]2C(=O)[C@]1(C)[C@H]1CC[C@]3(C)[C@@H](CC(=O)O[C@H]3c3ccoc3)[C@]13O[C@H]23 [RUAGEANIN A],72.6
3,C=C1[C@@H]2CC[C@@]3(C)[C@H](c4ccoc4)OC(=O)C[C@]13O[C@H]1CC(=O)C(C)(C)[C@H](CC(=O)OC)[C@]12C [METHYLANGOLENSATE],66.4
4,COC(=O)C[C@H]1C(C)(C)[C@H](OC(C)=O)[C@H]2C(=O)[C@]1(C)[C@H]1CC[C@]3(C)[C@@H](CC(=O)O[C@H]3c3ccoc3)[C@]13O[C@H]23 [XYLOCARPIN],77.8
